Active and inactive are the calls of the source. The calls are words filed in the database; no cut-off is given here.
Experiments:
[1] = Half life in Sprague-Dawley rat at 10 mg/kg, po by LC-MS/MS analysis; type: ADME, organism-based; settings: in vivo
[2] = target: ATP-dependent Clp protease proteolytic subunit (Escherichia coli (strain K12)) (UniProt P0A6G7); assay: Agonist activity at Escherichia coli ClpP using Suc-LY-AMC as substrate at 10 to 100 uM measured every 5 mins for 1 hr by fluorescence based analysis; settings: dose 10-100 µM
HCT-116 [3] = assay: Induction of apoptosis in human HCT-116 cells assessed as apoptotic rate at low dose measured after 48 hrs by annexin V-FITC/7-AAD based flow cytometry analysis relative to control; type: functional
[4] = Metabolic stability in rat liver microsomes assessed as half life at 1 uM measured upto 60 mins in presence of NADPH regenerating system by LC-MS/MS analysis; type: ADME, Microsome
Escherichia coli = assay: Antibacterial activity against Escherichia coli ATCC25922 assessed as reduction in bacterial growth; type: functional
HCT-116 [5] = assay: Induction of cell cycle arrest in human HCT-116 cells assessed as increase in number of cells at G2 phase at high dose measured after 48 hrs by PI staining based flow cytometry analysis; type: functional
[6] = Acute toxicity in BALB/c mouse assessed as increase in body weight at 5 mg/kg, iv measured upto 21 days relative to control; type: organism-based; settings: in vivo, 504 h, time < 21 day
HCT-116 [7] = assay: Induction of ROS generation in human HCT-116 cells assessed as increase in intracellular ROS level measured after 48 hrs DCFH-DA staining based analysis; type: functional, cell-based
[8] = MRT (0 to 24 hrs) in Sprague-Dawley rat at 10 mg/kg, iv by LC-MS/MS analysis; type: ADME, organism-based; settings: in vivo
[9] = Toxicity in BALB/c nude mouse assessed as effect on spleen at 1.25 to 5 mg/kg, iv administered twice weekly and measured after 21 days by H and E staining based analysis; type: organism-based; settings: in vivo, 504 h, dose 1.25-5 mg/kg, time 21 day
HCT-116 [10] = assay: Upregulation of ASNS expression in human HCT-116 cells measured after 48 hrs by Western blot analysis; type: functional, cell-based
[11] = Metabolic stability in human liver microsomes assessed as half life at 1 uM measured upto 60 mins in presence of NADPH regenerating system by LC-MS/MS analysis; type: ADME, Microsome
HCT-116 [12] = assay: Antitumor activity against human HCT-116 cells xenografted in BALB/c nude mouse model assessed as reduction in tumor weight at middle dose administered as iv twice weekly and measured upto 21 days; type: functional; settings: time <= 21 day
Staphylococcus aureus [13] = assay: Antibacterial activity against Staphylococcus aureus ATCC33591 assessed as reduction in bacterial growth; type: functional
HCT-116 [14] = assay: Antitumor activity against human HCT-116 cells xenografted in BALB/c nude mouse model assessed as increase in Bax expression at upto 5 mg/kg, iv administered twice weekly by Western blot analysis; type: functional, organism-based
[15] = target: T1, ATP-dependent Clp protease proteolytic subunit (Staphylococcus aureus (strain NCTC 8325)) (UniProt Q2G036); assay: Agonist activity at Staphylococcus aureus ClpP using Suc-LY-AMC as substrate at 10 to 100 uM measured every 5 mins for 1 hr by fluorescence based analysis; settings: dose 10-100 µM
T1 sequence (whole entry): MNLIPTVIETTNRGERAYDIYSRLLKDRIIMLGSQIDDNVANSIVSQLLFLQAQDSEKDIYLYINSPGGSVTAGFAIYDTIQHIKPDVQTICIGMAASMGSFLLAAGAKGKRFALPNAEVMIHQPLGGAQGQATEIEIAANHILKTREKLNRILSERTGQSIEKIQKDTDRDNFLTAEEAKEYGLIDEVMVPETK

[16] = Toxicity in BALB/c nude mouse assessed as effect on heart at 1.25 to 5 mg/kg, iv administered twice weekly and measured after 21 days by H and E staining based analysis; type: organism-based; settings: in vivo, 504 h, dose 1.25-5 mg/kg, time 21 day
HCT-116 [17] = assay: Antiproliferative activity against human HCT-116 cells assessed reduction in clone formation measured after 48 hrs by crystal violet staining based analysis; type: functional, cell-based
HCT-116 [18] = assay: Upregulation of JUN expression in human HCT-116 cells measured after 48 hrs by Western blot analysis; type: functional, cell-based
HCT-116 [19] = assay: Induction of cell cycle arrest in human HCT-116 cells assessed as effect on number of cells at G1 phase at 0.5 to 2 uM measured after 48 hrs by PI staining based flow cytometry analysis; type: functional; settings: dose 0.5-2 µM
[20] = Toxicity in BALB/c nude mouse assessed as effect on liver at 1.25 to 5 mg/kg, iv administered twice weekly and measured after 21 days by H and E staining based analysis; type: organism-based; settings: in vivo, 504 h, dose 1.25-5 mg/kg, time 21 day
[21] = Tmax in Sprague-Dawley rat at 10 mg/kg, po by LC-MS/MS analysis; type: ADME, organism-based; settings: in vivo
Staphylococcus aureus [22] = assay: Antibacterial activity against Staphylococcus aureus ATCC43300 assessed as reduction in bacterial growth; type: functional
HCT-116 [23] = assay: Effect on DDIT4 expression in ClpP knockdown human HCT-116 cells at 2 uM measured after 48 hrs by Western blot analysis; type: functional, cell-based
[24] = Toxicity in BALB/c nude mouse assessed as effect on kidney at 1.25 to 5 mg/kg, iv administered twice weekly and measured after 21 days by H and E staining based analysis; type: organism-based; settings: in vivo, 504 h, dose 1.25-5 mg/kg, time 21 day
HCT-116 [25] = assay: Effect on […] expression in ClpP knockdown human HCT-116 cells at 2 uM measured after 48 hrs by Western blot analysis; type: functional, cell-based
[26] = Metabolic stability in rat liver microsomes assessed as intrinsic clearance at 1 uM measured upto 60 mins in presence of NADPH regenerating system by LC-MS/MS analysis; type: ADME, Microsome; settings: read-out: CLH
[27] = Acute toxicity in BALB/c mouse assessed as effect on kidney at 50 mg/kg, iv administered as single dose measured upto 14 days by H and E staining based analysis; type: organism-based; settings: in vivo, 336 h, time < 14 day
DLD-1 = assay: cells; settings: Homo sapiens, DLD-1, 72 h
Description: Antiproliferative activity against human DLD-1 cells assessed as inhibition of cell growth measured after 72 hrs by CCK-8 method

[28] = Antiproliferative activity against rat H9c2 cells assessed as inhibition of cell growth measured after 72 hrs by CCK-8 method; type: toxicity, cell-based
HCT-116 [29] = assay: Upregulation of ATF3 expression in human HCT-116 cells measured after 48 hrs by Western blot analysis; type: functional, cell-based
HCT-116 [30] = assay: Induction of apoptosis in human HCT-116 cells assessed as apoptotic rate at medium dose measured after 48 hrs by annexin V-FITC/7-AAD based flow cytometry analysis relative to control; type: functional
HCT-116 [31] = assay: Antitumor activity against human HCT-116 cells xenografted in BALB/c nude mouse model assessed as reduction in tumor volume at 5 mg/kg,iv and measured upto 21 days relative to control; type: functional; parameters: scale not given: the % may be the effect or the level left; settings: time <= 21 day
HCT-116 [32] = assay: Upregulation of GCLC expression in human HCT-116 cells measured after 48 hrs by Western blot analysis; type: functional, cell-based
HCT-116 [33] = assay: Upregulation of DDIT3 expression in human HCT-116 cells measured after 48 hrs by Western blot analysis; type: functional, cell-based
[34] = Toxicity in BALB/c nude mouse assessed as effect on lung at 1.25 to 5 mg/kg, iv administered twice weekly and measured after 21 days by H and E staining based analysis; type: organism-based; settings: in vivo, 504 h, dose 1.25-5 mg/kg, time 21 day
HCT-116 [35] = assay: Antitumor activity against human HCT-116 cells xenografted in BALB/c nude mouse model assessed as reduction in tumor weight at high dose administered as iv twice weekly and measured upto 21 days; type: functional; settings: time <= 21 day

Sequence of ATP-dependent Clp protease proteolytic subunit (Escherichia coli (strain K12)) (P0A6G7 whole entry): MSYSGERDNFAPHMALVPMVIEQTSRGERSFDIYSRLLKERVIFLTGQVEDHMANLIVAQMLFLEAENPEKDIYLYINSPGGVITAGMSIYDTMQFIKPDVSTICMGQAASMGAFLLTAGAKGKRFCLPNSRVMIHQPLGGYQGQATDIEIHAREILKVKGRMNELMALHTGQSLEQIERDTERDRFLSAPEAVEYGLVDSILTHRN

With `N#Cc1cccc(CN2CCC=C(C(=O)NCc3ccc(C(F)(F)F)cc3)C2)c1` the half-life [1] was 4.7 h, the Activity [2] was “inactive” and the Activity (HCT-116 [3]) was 22%. It also gave a half-life at 1 µM [4] of 0.3 h, an MIC (Escherichia coli) greater than 128 µg/mL and an Activity (HCT-116 [5]) of roughly 40%. The Activity [6] was “Toxic”, the Activity (HCT-116 [7]) was “Active” and the MRT last [8] was 3.1 h. For the same molecule, the Activity [9] was “Non-Toxic”, the Activity (HCT-116 [10]) was “Active” and the half-life at 1 µM [11] was 6.1 min. For the same molecule, the Activity (HCT-116 [12]) was 250 mg, the MIC (Staphylococcus aureus [13]) was greater than 128 µg/mL and the Activity (HCT-116 [14]) was “Active”. The Activity [15] was “inactive”, the Activity [16] was “Non-Toxic” and the Activity (HCT-116 [17]) was “Dose-Dependent Effect”. For the same molecule, the Activity (HCT-116 [18]) was “Active”, the Activity (HCT-116 [19]) was “inactive” and the Activity [20] was “Non-Toxic”. The Tmax [21] was 5.4 h, the MIC (Staphylococcus aureus [22]) was greater than 128 µg/mL and the Activity (HCT-116 [23]) was “inactive”. For the same molecule, the Activity [24] was “Non-Toxic”, the Activity (HCT-116 [25]) was “inactive” and the CLint scaled at 1 µM [26] was 305 mL/min/kg. For the same molecule, the Activity [27] was “Non-Toxic”, the IC50 (DLD-1) was 3.1 µM and the IC50 at 72 h [28] was 60.6 µM. The Activity (HCT-116 [29]) was “Active”, the Activity (HCT-116 [30]) was 46% and the Activity (HCT-116 [31]) was 83.6%. For the same molecule, the Activity (HCT-116 [32]) was “Active”, the Activity (HCT-116 [33]) was “Active” and the Activity [34] was “Non-Toxic”. It also gave an Activity (HCT-116 [35]) of 300 mg.
